Data from US11696924B2, “Combination therapy using PDK1 and PI3K inhibitors” (MEMORIAL SLOAN-KETTERING CANCER CENTER, priority 2015, dated 2023).
Entries after “also recorded” stand apart in the source; their conditions may differ. Where two headings read alike, the source gives them in different places.

Key:
CaCO2 cells = details: cited from earlier work
SGK3 = SGK3 (Homo sapiens, UniProt Q96BR1); test: in vitro SGK3 kinase activity assay; assay type: biochemical
S6K signaling [1] = details: up to 30 μM, 4 h, TSC2 KO mouse fibroblasts
Experimental: (§2) Recombinant GST-S6 was used as a substrate and phosphorylated S6 (S235/6) antibody was used for the detection of phosphorylated substrate by Western blot. […] Everolimus was used as a positive control at 200 nM. Error bars are ±SEM. […] Quantification of the m^7GTP-precipitated proteins is indicated in fold change. AZD8055 is used as a control at 1 μM). […] Error bars are ±SEM.
(§3) For western blot analysis proteins were extracted in RIPA buffer supplemented with protease and phosphatase inhibitors (Roche). Protein lysates were separated using SDS-PAGE gels and transferred to a PVDF membrane. Then, membranes were probed using specific antibodies. PDK1, pAKT (S473), pAKT (T308), pS6K (T389), pS6 (S240/4), pS6 (235/6), p4EBP1 (S65), PARP, Actin, pRSK (S227), cleaved Caspase 3, pFOXO1/3 (T24/T32), SGK1, SGK2, SGK3, pNDRG1 (T346), NDRG1, Flag, HA, and phospho-RXRXX(S/T) (SEQ ID NO: 1) were from Cell Signaling Technology (CST).

pNDRG1 (T346) = test: Western blot of NDRG1 phosphorylation (T346); assay type: cell-based
Experimental: A) SGK1 mRNA levels in breast cancer cell lines sensitive or resistant to BYL719 (n=27). B) SGK1 mRNA levels in PIK3CA-mutant breast cancer cell lines sensitive or resistant to BYL719. C) Western blot of SGK1, SGK2, SGK3 and phosphorylated NDRG1 in a panel of PIK3CA—mutant breast cancer cell lines sensitive or resistant to BYL719. D) Western blot for NDRG1 and phosphorylated NDRG1 (T346) in BYL719-sensitive and -resistant breast cancer cell lines treated with BYL719 (1 μM) for 4 h. […] P values are calculated using Student's t-test. Error bars are ±SEM.
A) Dose-response curves from MDA-MB-361 cells transduced with pLenti7.3-LacZ or pLenti7.3-SGK1 (Δ60, S422D) treated with increasing concentrations of BYL719 for 6 days. B) Western blot analysis of LacZ and SGK1 MDA-MB-361 cells treated with BYL719 (1 μM) for 4 h. […] The DFG motif amino acids are indicated (D240, F241, G242). […] Hydrogen bonds are shown as dotted lines. […] L) IHC analysis of tumors from K collected at the end of the experiment. M) Top panel: growth curves of HCC1954 cells stably expressing doxycycline-inducible control (REN) or SGK1 knockdown treated with increasing concentrations of BYL719 for 6 days. Bottom panel: Western blot analysis of GFP-sorted control (REN) and SGK1 shRNA cells treated with BYL719 (1 μM) for 4 h. P values are calculated using Student's t-test. Error bars are ±SEM.
(§1) Then, membranes were probed using specific antibodies.

mTORC1 = test: Western blot of mTORC1 signaling (pS6K, pS6, p4EBP1); assay type: cell-based; details: for sustained S6 phosphorylation: HCC1954 cells, presence or absence of BYL719 (1 μM)
Excerpt: as §3

mTOR = mTOR (Homo sapiens, UniProt P42345); details: read-out: IC50, mTOR; 4EBP1 as substrate
S6K1 = test: recombinant in vitro kinase assay of S6K ([…] peptide substrate); assay type: biochemical
S6K (ΔCT T389E) = test: S6K kinase assay in 293T cells overexpressing constitutively active S6K; assay type: cell-based
SGK1 = SGK1 (Homo sapiens, UniProt O00141); test: ATP-competition assay; details: ATP at 100, 250, 350 and 500 μM
Sequence of SGK1 (O00141 whole entry): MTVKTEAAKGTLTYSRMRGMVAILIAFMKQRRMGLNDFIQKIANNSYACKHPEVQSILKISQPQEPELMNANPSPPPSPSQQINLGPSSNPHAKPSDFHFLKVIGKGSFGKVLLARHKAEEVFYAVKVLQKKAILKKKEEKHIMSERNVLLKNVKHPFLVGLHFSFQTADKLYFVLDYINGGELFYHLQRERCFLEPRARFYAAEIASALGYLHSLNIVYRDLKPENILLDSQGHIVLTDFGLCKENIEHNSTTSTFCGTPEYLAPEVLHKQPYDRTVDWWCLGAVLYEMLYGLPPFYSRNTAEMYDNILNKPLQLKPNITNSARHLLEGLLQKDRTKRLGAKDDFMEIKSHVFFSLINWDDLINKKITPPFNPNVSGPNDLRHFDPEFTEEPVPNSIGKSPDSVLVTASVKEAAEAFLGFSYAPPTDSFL
Excerpt: Recombinant GST-S6 was used as a substrate and phosphorylated S6 (S235/6) antibody was used for the detection of phosphorylated substrate by Western blot.

SGK2 = SGK2 (Homo sapiens, UniProt Q9HBY8); test: in vitro SGK2 kinase activity assay; assay type: biochemical
Sequence of SGK2 (Q9HBY8 whole entry): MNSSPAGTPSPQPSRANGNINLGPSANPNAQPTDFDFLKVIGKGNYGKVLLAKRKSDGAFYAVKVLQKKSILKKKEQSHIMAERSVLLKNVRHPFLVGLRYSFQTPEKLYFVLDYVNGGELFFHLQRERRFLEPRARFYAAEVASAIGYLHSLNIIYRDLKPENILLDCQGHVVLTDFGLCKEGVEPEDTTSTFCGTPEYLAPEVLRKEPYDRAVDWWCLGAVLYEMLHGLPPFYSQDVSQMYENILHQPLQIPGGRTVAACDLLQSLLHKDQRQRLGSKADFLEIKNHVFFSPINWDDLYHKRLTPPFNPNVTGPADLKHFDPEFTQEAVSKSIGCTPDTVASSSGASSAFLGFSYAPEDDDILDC

HCC1954 xenografts = test: HCC1954 in vivo xenograft; design: species or system mice; details: HCC1954 xenografts, end of the experiment
Experimental: Animals were maintained and treated in accordance with Institutional Guidelines of Memorial Sloan Kettering Cancer Center (Protocol number 12-10-019). 5×10^6 cells in 1:1 PBS/Matrigel (Corning) were injected subcutaneously into six-week-old female athymic Foxn1^nu nude mice.
When tumors reached a volume of ˜150 mm^3 mice were randomized, treated, and tumors were measured twice a week during a month. At least 10 tumors per group were used in all the studies. […] Tumors were harvested at the end of the experiment three hours after the last dosage, fixed in 4% formaldehyde in PBS, and paraffin-embedded. […] Primary staining was followed by 60 minutes incubation with biotinylated goat anti-rabbit IgG (Vector labs) 1:200. Blocker D, Streptavidin-HRP and DAB detection kit (Ventana Medical Systems) were used according to the manufacturer instructions.

RSK = test: selectivity screening, panel of 140 kinases; details: 1 μM
Experimental: (§4) IC50 value is indicated. […] Recombinant GST-S6 was used as a substrate and phosphorylated S6 (S235/6) antibody was used for the detection of phosphorylated substrate by Western blot. IC50 value is indicated. […] Everolimus was used as a positive control at 200 nM. Error bars are ±SEM. […] Quantification of the m^7GTP-precipitated proteins is indicated in fold change. AZD8055 is used as a control at 1 μM). […] Error bars are ±SEM.

AKT1 = AKT1 (Homo sapiens, UniProt P31749); test: selectivity screening, panel of 140 kinases; details: 1 μM
Sequence of AKT1 (P31749 whole entry): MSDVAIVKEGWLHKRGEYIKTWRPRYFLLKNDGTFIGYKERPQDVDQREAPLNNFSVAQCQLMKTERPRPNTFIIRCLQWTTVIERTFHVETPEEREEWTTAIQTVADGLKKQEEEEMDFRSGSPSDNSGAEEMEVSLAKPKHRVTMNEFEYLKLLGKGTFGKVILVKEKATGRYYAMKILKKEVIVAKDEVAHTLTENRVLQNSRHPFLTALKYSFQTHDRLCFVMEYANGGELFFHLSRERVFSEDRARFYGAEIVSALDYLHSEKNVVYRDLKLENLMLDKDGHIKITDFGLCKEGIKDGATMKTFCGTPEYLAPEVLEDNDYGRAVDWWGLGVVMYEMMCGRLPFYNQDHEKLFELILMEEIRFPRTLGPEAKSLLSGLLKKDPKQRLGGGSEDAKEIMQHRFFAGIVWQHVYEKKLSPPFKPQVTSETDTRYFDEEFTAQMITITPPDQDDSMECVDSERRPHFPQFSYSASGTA
Experimental: as §4

S6K = S6K (Homo sapiens, UniProt P23443); test: selectivity screening, panel of 140 kinases; details: 1 μM
Sequence of S6K (P23443 whole entry): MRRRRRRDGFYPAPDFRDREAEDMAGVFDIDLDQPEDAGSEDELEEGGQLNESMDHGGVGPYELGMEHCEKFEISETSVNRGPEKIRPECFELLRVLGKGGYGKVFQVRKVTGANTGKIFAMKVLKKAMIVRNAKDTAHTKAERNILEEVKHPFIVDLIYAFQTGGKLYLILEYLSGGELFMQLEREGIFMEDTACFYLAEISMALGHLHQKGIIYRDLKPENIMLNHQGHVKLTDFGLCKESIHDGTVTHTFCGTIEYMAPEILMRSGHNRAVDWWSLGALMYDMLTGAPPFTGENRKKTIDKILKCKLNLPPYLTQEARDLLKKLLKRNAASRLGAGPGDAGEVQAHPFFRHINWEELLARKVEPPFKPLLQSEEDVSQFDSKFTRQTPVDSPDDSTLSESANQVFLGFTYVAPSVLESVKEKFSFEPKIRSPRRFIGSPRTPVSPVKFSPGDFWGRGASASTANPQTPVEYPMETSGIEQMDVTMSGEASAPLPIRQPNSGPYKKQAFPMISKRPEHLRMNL
Experimental: as §4

S6K signaling [2] = test: Western blot of S6K targets in fibroblasts of a TSC2-null lymphangioleiomyomatosis patient; details: up to 30 μM, 4 h, TSC2-null LAM patient fibroblasts
Experimental: as §2, §3

PDK1 = PDK1 (Homo sapiens, UniProt O15530); test: selectivity screening, panel of 140 kinases; details: 1 μM
Sequence of PDK1 (O15530 whole entry): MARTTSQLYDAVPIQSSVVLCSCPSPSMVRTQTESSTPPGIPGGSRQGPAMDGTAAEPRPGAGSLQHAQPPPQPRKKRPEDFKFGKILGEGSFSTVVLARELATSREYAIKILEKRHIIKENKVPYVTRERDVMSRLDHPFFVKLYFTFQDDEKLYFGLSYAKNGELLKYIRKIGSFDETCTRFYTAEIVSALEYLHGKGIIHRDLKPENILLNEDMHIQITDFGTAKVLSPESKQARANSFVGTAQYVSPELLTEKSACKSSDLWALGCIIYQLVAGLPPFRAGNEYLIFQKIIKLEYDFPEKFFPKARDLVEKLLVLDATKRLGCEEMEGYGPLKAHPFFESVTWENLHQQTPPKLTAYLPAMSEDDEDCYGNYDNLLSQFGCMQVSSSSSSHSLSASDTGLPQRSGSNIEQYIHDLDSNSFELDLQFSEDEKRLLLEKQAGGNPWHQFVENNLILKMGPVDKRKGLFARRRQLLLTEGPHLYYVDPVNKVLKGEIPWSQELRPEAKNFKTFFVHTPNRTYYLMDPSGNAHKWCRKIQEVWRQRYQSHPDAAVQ
Experimental: as §4

PKC = test: selectivity screening, panel of 140 kinases; details: 1 μM
Experimental: as §4

pRSK2 (S227) = test: Western blot of phosphorylated RSK2 (S227), PDK1 target; assay type: cell-based; details: HCC1954 and JIMT1, 1 μM
Experimental: A) Dose-response curves from HCC1954 or JIMT1 shGFP and shPDK1 cells treated with BYL719 for 6 days. […] Staurosporine is used as a positive control (1 μM; 4 h). E) HCC1954 shGFP and shPDK1 in vivo xenograft treated with Vehicle or BYL719 (n=10/arm). F) IHC analysis of tumors from E collected at the end of the experiment. […] Staurosporine is used as a positive control (1 μM, 4 h). […] L) IHC analysis of tumors from K collected at the end of the experiment. M, N) JIMT1 in vivo xenograft tested as described in (K) and (L) for HCC1954 in vivo xenograft. P values are calculated using Student's t-test. Error bars are ±SEM.
as §1

TSC2 (S939) = test: Western blot of phosphorylated TSC2 (S939); assay type: cell-based; details: HCC1954, PD0325901 1 μM, GSK1120212 50 nM, ± BYL719, 4 h

Sequence of SGK3 (Q96BR1 whole entry): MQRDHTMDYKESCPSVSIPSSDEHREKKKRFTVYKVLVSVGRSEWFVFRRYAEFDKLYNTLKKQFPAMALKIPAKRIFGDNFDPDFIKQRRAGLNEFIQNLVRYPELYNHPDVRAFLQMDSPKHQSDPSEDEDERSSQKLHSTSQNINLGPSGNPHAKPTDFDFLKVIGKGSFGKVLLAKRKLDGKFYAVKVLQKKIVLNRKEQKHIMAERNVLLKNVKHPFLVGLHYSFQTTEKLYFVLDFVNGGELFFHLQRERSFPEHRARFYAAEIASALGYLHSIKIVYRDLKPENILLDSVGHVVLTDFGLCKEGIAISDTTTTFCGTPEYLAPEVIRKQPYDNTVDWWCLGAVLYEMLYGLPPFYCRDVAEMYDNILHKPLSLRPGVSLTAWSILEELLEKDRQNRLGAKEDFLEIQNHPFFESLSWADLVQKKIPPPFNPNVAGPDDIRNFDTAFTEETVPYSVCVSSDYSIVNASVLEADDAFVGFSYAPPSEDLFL

Q: With Nc1n[nH]c2nc(-c3ccc(NS(=O)(=O)c4cccc(Cl)c4Cl)cc3)cnc12 [SGK1-inh] as the compound, how does the permeability (CaCO2 cells) read?
A: 1.33e-05 cm/s

Q: And the IC50 (SGK3)?
A: 590 nM

Q: And the “S6K signaling: pS6 (S235/6), pS6 (S240/4), pmTOR (S2448)” value (S6K signaling [1])?
A: not able to reduce S6K signaling

Q: What about the “appropriate concentration to inhibit endogenous SGK1 (NDRG1 phosphorylation)” value (pNDRG1 (T346); HCC1954 cells, 4 hours, in the presence of BYL719 (1 μM)) of the same compound?
A: 10 µM

Q: And the mTORC1 signaling (mTORC1; BYL719-resistant cells (HCC1954, JIMT1), 4 h, BYL719 1 μM, GSK2334470 1 μM, SGK1-inh 10 μM)?
A: some activity towards S6K signaling

Q: What about the IC50 (mTOR) of the same compound?
A: > 5 µM

Q: What about the IC50 (S6K1) of the same compound?
A: 33 nM

Q: What about the IC50 (S6K (ΔCT T389E); 293T cells, HA-S6K (ΔCT T389E), GST-S6 substrate, read-out: IC50, S6K at the cellular level) of the same compound?
A: ~20 µM

Q: And the “concentrations below which there is no activity towards S6K” value (S6K (ΔCT T389E); conclusion from cellular S6K assays)?
A: 20 to 30 µM

Q: What about the “effect of increasing ATP on potency” value (SGK1) of the same compound?
A: decreased the potency

Q: And the IC50 (SGK2)?
A: 2.8 nM

Q: And the “pS6 (S240/4) and 4EBP1 (T37/46) in tumors, IHC” value (HCC1954 xenografts)?
A: remained elevated

Q: What about the “activity against RSK” value (RSK) of the same compound?
A: no activity

Q: And the “activity against AKT1” value (AKT1)?
A: no activity

Q: What about the “activity against S6K” value (S6K) of the same compound?
A: inhibited

Q: And the “S6K signaling: pS6 (S235/6), pS6 (S240/4), pmTOR (S2448)” value (S6K signaling [2])?
A: not able to reduce S6K signaling

Q: And the “activity against PDK1” value (PDK1)?
A: no activity

Q: What about the “activity against PKC” value (PKC) of the same compound?
A: no activity

Q: Which results are given for CNc1nc(-c2ccc3c(N)n[nH]c3c2)cc(N2C[C@@H](C(=O)NC3CCCCC3)CC[C@H]2C)n1 [GSK2334470]?
A: phosphorylation of FOXO3 and NDRG1, added to AZD8055 (pNDRG1 (T346); HCC1954, GSK2334470 1 μM plus AZD8055): marked decrease in the phosphorylation of both FOXO3 and NDRG1; pRSK2 (S227) (pRSK2 (S227)): appreciably reduced; also recorded: inhibited when cells are treated with GSK2334470 alone or in combination

Q: With COc1ccc(-c2ccc3c(N4CCOC[C@@H]4C)nc(N4CCOC[C@@H]4C)nc3n2)cc1CO [AZD8055] as the compound, how does the “pFOXO3 (T32) and pNDRG1 (T346) levels” value (pNDRG1 (T346); HCC1954, increasing concentrations, single agent) read?
A: did not reduce the levels of the substrates pFOXO3 (T32) and pNDRG1 (T346)

Q: For N#Cc1c(O)c2c(-c3ccc(-c4ccccc4O)cc3)csc2[nH]c1=O [A769662], which “sustained S6 phosphorylation” value (mTORC1) is on record?
A: unable to rescue the sustained phosphorylation of S6

Q: With O=C(NOC[C@H](O)CO)c1ccc(F)c(F)c1Nc1ccc(I)cc1F [PD0325901] as the compound, how does the “TSC2 phosphorylation at S939 (or mTORC1 downstream signaling)” value (TSC2 (S939)) read?
A: did not detect changes in TSC2 phosphorylation at S939

Q: Which “TSC2 phosphorylation at S939 (or mTORC1 downstream signaling)” value (TSC2 (S939)) does the source give for CC(=O)Nc1cccc(-n2c(=O)n(C3CC3)c(=O)c3c(Nc4ccc(I)cc4F)n(C)c(=O)c(C)c32)c1 [GSK1120212] here?
A: did not detect changes in TSC2 phosphorylation at S939

Q: Which “sustained S6 phosphorylation” value (mTORC1) does the source give for O=CC[C@@H](O)[C@H](O)[C@H](O)CO [2-deoxyglucose] here?
A: unable to rescue the sustained phosphorylation of S6
